Earlier results, collected in US20240229143A1, “FORMULATION OF PEPTIDE IMMUNOTHERAPIES” (priority 2020, published 2024).

Assays:
[1] = single amino acid; octanol:water
[2] = single amino acid
[3] = single amino acid; remark: listed apart in the source

SMILES: CC(C)[C@H](N)C(=O)O [Valine (Val)]
- Log P [1]: −2.08
- pl [2]: 5.96
- Log D7.4 [3]: 0.32

SMILES: N[C@@H](Cc1ccc(O)cc1)C(=O)O [Tyrosine (Tyr)]
- pl [2]: 5.66

SMILES: N[C@@H](Cc1c[nH]cn1)C(=O)O [Histidine (His)]
- Log P [1]: −3.56
- pl [2]: 7.59
- Log D7.4 [3]: −0.44

SMILES: N[C@@H](Cc1ccccc1)C(=O)O [Phenylalanine (Phe)]
- Log P [1]: −1.63
- pl [2]: 5.48
- Log D7.4 [3]: 1.16

SMILES: C[C@@H](O)[C@H](N)C(=O)O [Threonine (Thr)]
- Log P [1]: −2.92
- pl [2]: 5.60
- Log D7.4 [3]: −0.26

SMILES: NCCCC[C@H](N)C(=O)O [Lysine (Lys)]
- Log P [1]: −4.44
- pl [2]: 9.74
- Log D7.4 [3]: −2.27

SMILES: N=C(N)NCCC[C@H](N)C(=O)O [Arginine (Arg)]
- pl [2]: 10.76
- Log D7.4 [3]: −1.65

SMILES: CC(C)C[C@H](N)C(=O)O [Leucine (Leu)]
- Log P [1]: −1.61

SMILES: CSCC[C@H](N)C(=O)O [Methionine (Met)]
- Log P [1]: −1.84
- pl [2]: 5.74
- Log D7.4 [3]: 0.51

SMILES: NC(=O)CC[C@H](N)C(=O)O [Glutamine (Gln)]
- Log P [1]: −3.24

SMILES: CC[C@H](C)[C@H](N)C(=O)O [Isoleucine (Ile)]
- Log P [1]: −1.72
- pl [2]: 6.20
- Log D7.4 [3]: 0.69

SMILES: N[C@@H](CCC(=O)O)C(=O)O [Glutamic Acid (Glu)]
- Log P [1]: −2.94
- pl [2]: 3.22
- Log D7.4 [3]: −2.19

SMILES: C[C@H](N)C(=O)O [Alanine (Ala)]
- Log P [1]: −2.89
- pl [2]: 6.00
- Log D7.4 [3]: −0.27

SMILES: N[C@@H](Cc1c[nH]c2ccccc12)C(=O)O [Tryptophan (Trp)]
- Log P [1]: −1.75
- pl [2]: 5.89
- Log D7.4 [3]: 1.46

SMILES: N[C@@H](CO)C(=O)O [Serine (Ser)]
- pl [2]: 5.68

SMILES: NCC(=O)O [Glycine (Gly)]
- Log P [1]: −3.25
- pl [2]: 5.97
- Log D7.4 [3]: −0.22

SMILES: NC(=O)C[C@H](N)C(=O)O [Asparagine (Asn)]
- Log P [1]: −3.41
- pl [2]: 5.41
- Log D7.4 [3]: −0.98

SMILES: O=C(O)[C@@H]1CCCN1 [Proline (Pro)]
- Log P [1]: −2.50
- pl [2]: 6.30
- Log D7.4 [3]: 0.15

SMILES: N[C@@H](CS)C(=O)O [Cysteine (Cys)]
- pl [2]: 5.07

SMILES: N[C@@H](CC(=O)O)C(=O)O [Asparic Acid (Asp)]
- Log P [1]: −3.38
- pl [2]: 2.77
- Log D7.4 [3]: −2.06
